Laboratory results: PMC9095466 (Nature, 2022)
Where “and” joins values, the source holds several entries; their conditions need not be identical. Identical values can stand only once. Counter-ions that a name gives are not always drawn. Like-named read-outs stand apart in the source and are kept apart here.

Assays:
[1] = molecular target: T1, Recombinant human matriptase (Homo sapiens, UniProt Q9Y5Y6); test: Protease selectivity, Ki on recombinant protease; format: biochemical
T1 construct: made in house
T1 sequence (Q9Y5Y6 1-855): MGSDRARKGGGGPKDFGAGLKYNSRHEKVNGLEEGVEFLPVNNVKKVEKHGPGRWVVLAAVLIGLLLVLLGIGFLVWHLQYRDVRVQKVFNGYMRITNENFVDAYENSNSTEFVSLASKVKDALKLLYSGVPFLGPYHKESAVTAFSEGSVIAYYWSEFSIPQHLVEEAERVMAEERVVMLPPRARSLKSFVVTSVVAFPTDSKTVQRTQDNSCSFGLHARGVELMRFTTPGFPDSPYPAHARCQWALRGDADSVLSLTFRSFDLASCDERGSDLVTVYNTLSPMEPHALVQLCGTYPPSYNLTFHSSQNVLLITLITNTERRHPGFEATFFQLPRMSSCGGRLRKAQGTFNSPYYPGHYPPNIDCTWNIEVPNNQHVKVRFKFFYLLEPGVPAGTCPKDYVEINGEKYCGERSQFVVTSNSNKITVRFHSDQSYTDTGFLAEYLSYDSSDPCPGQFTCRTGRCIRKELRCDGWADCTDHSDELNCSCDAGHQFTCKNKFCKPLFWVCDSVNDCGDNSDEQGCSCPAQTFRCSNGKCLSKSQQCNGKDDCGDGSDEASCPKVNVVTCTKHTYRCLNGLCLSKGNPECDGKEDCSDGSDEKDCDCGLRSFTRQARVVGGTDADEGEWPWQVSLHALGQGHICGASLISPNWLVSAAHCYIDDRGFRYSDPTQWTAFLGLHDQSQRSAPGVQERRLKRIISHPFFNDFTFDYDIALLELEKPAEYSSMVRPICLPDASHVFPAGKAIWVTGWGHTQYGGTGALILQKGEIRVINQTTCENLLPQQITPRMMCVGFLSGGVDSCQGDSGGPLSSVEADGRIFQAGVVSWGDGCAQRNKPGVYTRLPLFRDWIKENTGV

[2] = system: SARS-CoV-2 lineage B strain (VIDO); test: microbe, parasite or virus in culture; format: cell-based
Vero E6 cells = test: Cytotoxicity assay (Cell Titer-Glo 2.0) in Vero E6 cells; format: cell-based; conditions: 10 μM compound, 24 h, relative to vehicle (DMSO 0.01%); single experiments N1-N4; 10 µM
Method: Calu-3 and Vero E6 cells (2500 or 10,000 cells for samples, 80–20,000 cells for standard curve) were seeded in 96-well plates. Following a 24-h incubation at 37 °C, 5% CO2, cells were washed with D-PBS and compounds added (10 µM) for an additional 24-h incubation. Cellular viability was assessed using Cell Titer-Glo 2.0 Cell Viability Assay (Promega) according to the manufacturer’s instructions. The number of viable cells was extrapolated using the standard curve. Cellular viability in Vero E6 cells was expressed relative (%) to vehicle-treated cells. Data are from four independent experiments (mean ± s.d.).

SARS-CoV-2 [3] = system: SARS-CoV-2; set-up: method as in PMID 32142651, PMID 33844653; conditions: adenovirus hACE2 model; cited from earlier work
SARS-CoV-2 (VIDO) = format: cell-based; set-up: plaque assay titre, Figure 2c: unit not given beside the values; conditions: for reduction of viral titre (plaque assay): supernatant of infected Calu-3 cells, vs DMSO-treated infected control; for plaque assay titre, Figure 2c: replicate columns, listed as Cm
SARS-CoV-2 [4] = system: SARS-CoV-2; set-up: method as in PMID 33903855; conditions: hospitalized patients with COVID-19; cited from earlier work
Recombinant human DESC1 = molecular target: T2, Recombinant human DESC1 (Homo sapiens, UniProt Q9UL52); test: Protease selectivity, Ki on recombinant protease; format: biochemical
T2 construct: made in house
T2 sequence (Q9UL52 1-423): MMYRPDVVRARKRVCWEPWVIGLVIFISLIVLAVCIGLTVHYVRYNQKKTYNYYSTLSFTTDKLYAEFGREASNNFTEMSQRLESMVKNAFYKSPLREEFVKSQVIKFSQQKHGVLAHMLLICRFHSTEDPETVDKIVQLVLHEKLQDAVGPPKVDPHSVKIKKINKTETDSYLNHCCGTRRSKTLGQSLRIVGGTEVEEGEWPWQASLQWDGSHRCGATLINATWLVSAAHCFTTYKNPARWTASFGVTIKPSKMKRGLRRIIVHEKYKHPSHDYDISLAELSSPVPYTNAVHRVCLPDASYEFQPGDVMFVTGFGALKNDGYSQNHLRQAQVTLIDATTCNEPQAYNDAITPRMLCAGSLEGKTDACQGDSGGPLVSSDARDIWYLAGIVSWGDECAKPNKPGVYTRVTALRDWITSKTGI

human TMPRSS2 = human TMPRSS2 (Homo sapiens, UniProt O15393); test: cell-based
Chain of human TMPRSS2 (O15393 whole entry): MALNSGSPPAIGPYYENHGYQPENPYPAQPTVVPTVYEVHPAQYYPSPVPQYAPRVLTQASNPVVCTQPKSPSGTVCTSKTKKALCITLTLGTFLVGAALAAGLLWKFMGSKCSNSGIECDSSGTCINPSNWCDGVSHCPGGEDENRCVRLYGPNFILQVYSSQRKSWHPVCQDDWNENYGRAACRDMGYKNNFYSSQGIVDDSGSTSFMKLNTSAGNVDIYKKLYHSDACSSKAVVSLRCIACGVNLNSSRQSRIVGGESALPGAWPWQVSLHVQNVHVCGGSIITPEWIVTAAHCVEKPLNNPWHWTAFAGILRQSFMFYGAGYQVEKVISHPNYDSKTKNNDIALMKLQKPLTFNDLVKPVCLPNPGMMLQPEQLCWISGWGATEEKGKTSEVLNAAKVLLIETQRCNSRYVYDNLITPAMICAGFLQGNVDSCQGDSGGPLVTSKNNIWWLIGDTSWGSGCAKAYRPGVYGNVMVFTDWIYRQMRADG

CN(C)C(=O)COC(=O)Cc1ccc(OC(=O)c2ccc(NC(=N)N)cc2)cc1 [Camostat mesylate, reference compound]
Ki ([1]; mean ± s.d., max concentration 10 µM, read-out: Ki Matriptase): 5.6 ± 1 nM | Ki ([1]; single experiments N1-N3, Figure 1D, read-out: Individual Ki, Matriptase): 6.79 nM and 5.15 nM and 4.98 nM | Nucleocapsid ([2]; Figure 2a, two replicates, DMSO control about 91-94, listed as Cm): 8.612 and 24.2399 | dsRNA ([2]; Figure 2a, two replicates, DMSO control about 93-95, listed as Cm): 17.4079 and 31.7604 | EC50 ([2]; Severe acute respiratory syndrome coronavirus 2, Calu-3, read-out: SARS-CoV-2 VIDO Nucleocapsid EC50 ± SE): 10.6 ± 8.4 nM | inhibition at 0.1 µM ([2]; Severe acute respiratory syndrome coronavirus 2, Calu-3, read-out: inhibition of SARS-CoV-2 infection): > 83% | Figure 2b dose-response, Mean ([2]; log [C] (nM) 0.20412): 84.468 | Figure 2b dose-response, Mean ([2]; log [C] (nM) 0.90309): 76.973 | Figure 2b dose-response, Mean ([2]; log [C] (nM) 1.60206): 24.9288 | Figure 2b dose-response, Mean ([2]; log [C] (nM) 2.30103): 0.8428 | Figure 2b dose-response, Mean ([2]; log [C] (nM) 3): 0.2267 | Figure 2b dose-response, Mean ([2]; log [C] (nM) -0.49485): 80.5882 | Figure 2b dose-response, Mean ([2]; log [C] (nM) -1.19382): 94.4767 | % Viability of Vero E6 cells (Vero E6 cells): 115.453% and 94.4731% and 96.0284% and 136.615% | protection against infection (SARS-CoV-2 [3]): no significant protection against infection was observed | reduction of viral titre (plaque assay) (SARS-CoV-2 (VIDO); 40 nM): approximately half-log | plaque assay titre, Figure 2c (SARS-CoV-2 (VIDO); 40 nM): 1000 (6×) and 11000 (2×) and 20000 and 10000 (2×) and 80000 and 330000 and 30000 and 170000 | reduction of viral titre (plaque assay) (SARS-CoV-2 (VIDO); 200 nM): approximately 1.5 log | plaque assay titre, Figure 2c (SARS-CoV-2 (VIDO); 200 nM): 1000 (9×) and 40000 and 10000 (3×) and 130000 and 30000 and 20000 | effect on the time to recovery and incidence of death (SARS-CoV-2 [4]): no effect | Ki (Recombinant human DESC1; mean ± s.d., max concentration 10 µM, read-out: Ki DESC1): 5.8 ± 3.4 nM | Ki (Recombinant human DESC1; single experiments N1-N3, Figure 1D, read-out: Individual Ki, Desc1): 7.88 nM and 7.73 nM and 1.85 nM | TMPRSS2 activity (%) (human TMPRSS2; Figure 1B, single experiments N1-N3, listed as Cm): 51.0758% and 41.2255% and 43.3144% | inhibition at 0.01 µM (human TMPRSS2; Vero C1008, 10 nM compound, 24 h, vs untreated/vehicle TMPRSS2-expressing Vero E6 cells, read-out: inhibition of TMPRSS2 activity (reduction of substrate proteolysis)): 56%
